The results in this text go back to PubChem BioAssay (NCI).

Among the test systems are SK-MEL-28 melanoma; TK-10 renal; SK-MEL-5 melanoma; A549 NSCLC; SN12C renal; HCT-116 colon; LOX IMVI melanoma; SK-OV-3 ovarian; SNB-75 CNS; UACC-62 melanoma.
Common to all, as to assay: NCI-60 cell line screen, 48 h

Where “and” joins values, the source holds several entries; their conditions need not be identical. Equal values may be shown once.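 In this assay, cells in 96-well plates receive the compound at five concentrations for 48 hours. Endpoints are linearly interpolated between the surrounding concentrations. Abbreviation: GI50, concentration required for 50% inhibition of growth. Definition used: TGI = concentration required for complete inhibition of growth.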

For `CCn1cnc2c(Nc3cccc(Cl)c3)nc(N[C@@H]3CCCC[C@@H]3N)nc21`, the GI50 with SK-MEL-28 melanoma is 1.68 µM; in the assay with TK-10 renal it was 1.95 µM; with SK-MEL-5 melanoma, 1.68 µM; in the assay with A549 NSCLC, 2.09 µM; in the assay on SN12C renal, 2.08 µM; in the assay with HCT-116 colon it was 1.12 µM. Further, the GI50 in the assay with LOX IMVI melanoma was 1.24 µM; in the assay with SK-OV-3 ovarian it was 3.85 µM; with SNB-75 CNS, 0.745 µM; with UACC-62 melanoma, 1.49 µM. Also, the TGI worked out at 3.42 µM in the assay on SK-MEL-28 melanoma; 5.06 µM in the assay on TK-10 renal; 3.11 µM with SK-MEL-5 melanoma; 8.6 µM in the assay with A549 NSCLC; 7.62 µM in the assay on SN12C renal; 2.87 µM in the assay with HCT-116 colon. Further, the TGI came out at 2.57 µM with LOX IMVI melanoma, 10.8 µM with SK-OV-3 ovarian, 2.23 µM in the assay on SNB-75 CNS and 3.59 µM with UACC-62 melanoma.
As for `CC1C=CC(=O)C(n2cc(F)c(=O)[nH]c2=O)O1` (centres undefined), the TGI with SK-MEL-28 melanoma is 46.8 µM; in the assay with TK-10 renal, 34.4 µM; with SK-MEL-5 melanoma, 35.8 µM; in the assay with A549 NSCLC, 70.8 µM; in the assay on SN12C renal it was 38.4 µM; in the assay on HCT-116 colon it was 29.1 µM. Besides, the TGI was found to be 33.6 µM with LOX IMVI melanoma, 61 µM with SK-OV-3 ovarian, 38.2 µM with SNB-75 CNS and 31.7 µM in the assay with UACC-62 melanoma.
Consider `Nc1nc2nc[nH]c2c(=O)[nH]1`, for which the TGI in the assay on SK-MEL-28 melanoma, with TK-10 renal, with SK-MEL-5 melanoma, in the assay on A549 NSCLC, in the assay with SN12C renal and with HCT-116 colon was over 100 µM in each case. Further, the TGI in the assay on LOX IMVI melanoma, in the assay with SK-OV-3 ovarian, in the assay on SNB-75 CNS and in the assay on UACC-62 melanoma was over 100 µM in each case.
`CCN(CC)C(=O)COc1ccc(Br)cc1Br`: the TGI in the assay on SK-MEL-28 melanoma, with TK-10 renal, with SK-MEL-5 melanoma, with A549 NSCLC, in the assay on SN12C renal and in the assay on HCT-116 colon was over 100 µM in each case. Besides, the TGI with LOX IMVI melanoma, in the assay on SK-OV-3 ovarian, in the assay with SNB-75 CNS and in the assay on UACC-62 melanoma was over 100 µM each time.
Consider `Cc1cc(O)cc2c1O[C@@]1(C)CCC3[C@@]4(C)CC[C@H](O)C(C)(C)C4CC[C@@]3(C)[C@H]1C2` (some centres undefined), for which the TGI in the assay with SK-MEL-28 melanoma turned out to be 20.3 µM; in the assay with TK-10 renal, 29 µM; in the assay on SK-MEL-5 melanoma, 19 µM; in the assay with A549 NSCLC, 19.6 µM; in the assay on SN12C renal, 25.4 µM; in the assay with HCT-116 colon, 16.1 µM. Besides, the TGI in the assay on LOX IMVI melanoma was 20.6 µM; in the assay on SK-OV-3 ovarian it was 12.5 µM; with SNB-75 CNS, 11.8 µM; with UACC-62 melanoma, 21.9 µM.
In the case of `Cn1cc(C2=C(c3cn(CCN)c4ccccc34)C(=O)NC2=O)c2ccccc21`, the GI50 was 7.68 µM in the assay on SK-MEL-28 melanoma; 6.3 µM with TK-10 renal; 4.59 µM with SK-MEL-5 melanoma; 6.75 µM in the assay with A549 NSCLC; 5.87 µM in the assay with SN12C renal; 5.57 µM in the assay on HCT-116 colon. Moreover, the GI50 was 6.05 µM with LOX IMVI melanoma, 6.17 µM in the assay on SK-OV-3 ovarian, 0.587 µM with SNB-75 CNS and 5.9 µM in the assay with UACC-62 melanoma. For the same compound, the TGI with SK-MEL-28 melanoma was over 25 µM; with TK-10 renal it was 18.8 µM; in the assay with SK-MEL-5 melanoma, 13 µM; in the assay on A549 NSCLC it was over 25 µM; with SN12C renal it was over 25 µM; in the assay on HCT-116 colon it was over 25 µM. Further, the TGI is over 22.8 µM in the assay with LOX IMVI melanoma, 24.4 µM in the assay with SK-OV-3 ovarian, 6.72 µM in the assay on SNB-75 CNS and 17.2 µM in the assay with UACC-62 melanoma.
Consider `N.N.NCCCCN.O=C([O-])C1(C(=O)[O-])CCC1.O=C([O-])C1(C(=O)[O-])CCC1.[Pt+4].[Pt+4]`, for which the GI50 in the assay with SK-MEL-28 melanoma was over 100 µM; in the assay on TK-10 renal, over 100 µM; in the assay with SK-MEL-5 melanoma, over 100 µM; with A549 NSCLC, over 100 µM; in the assay on SN12C renal, 63.8 µM; in the assay on HCT-116 colon, over 100 µM. Also, the GI50 was over 100 µM with LOX IMVI melanoma, over 100 µM in the assay on SK-OV-3 ovarian, over 100 µM in the assay on SNB-75 CNS and 82.2 µM in the assay with UACC-62 melanoma. Moreover, the TGI in the assay on SK-MEL-28 melanoma, in the assay with TK-10 renal, with SK-MEL-5 melanoma, in the assay on A549 NSCLC, in the assay on SN12C renal and with HCT-116 colon was over 100 µM in each case. For the same compound, the TGI in the assay on LOX IMVI melanoma, in the assay on SK-OV-3 ovarian, in the assay with SNB-75 CNS and with UACC-62 melanoma was over 100 µM each time.
With `C[C@@]12CCC(=O)C=C1CC[C@H]1C2=CC[C@]2(C)C1CC[C@@]2(C)O` (some centres undefined), the TGI in the assay with SK-MEL-28 melanoma, with TK-10 renal, in the assay with SK-MEL-5 melanoma, in the assay with A549 NSCLC, with SN12C renal and in the assay on HCT-116 colon was over 100 µM in each case. The TGI in the assay on LOX IMVI melanoma, in the assay with SK-OV-3 ovarian, in the assay on SNB-75 CNS and in the assay with UACC-62 melanoma was over 100 µM throughout.
`CC(C)(C)C(=O)C1CC(=O)c2ccccc2C1=O` (centres undefined): the TGI in the assay with SK-MEL-28 melanoma is 72.8 µM; with TK-10 renal it was over 100 µM; in the assay on SK-MEL-5 melanoma, 72.8 µM; in the assay with A549 NSCLC, over 100 µM; in the assay with SN12C renal it was over 100 µM; in the assay on HCT-116 colon it was 46.2 µM. Also, the TGI is over 100 µM in the assay with LOX IMVI melanoma, 75 µM with SK-OV-3 ovarian, 31.3 µM in the assay with SNB-75 CNS and over 100 µM in the assay with UACC-62 melanoma.
With `CO[C@@H]1[C@H](OC(=O)NC(=O)CCl)CC[C@]2(CO2)[C@H]1[C@@]1(C)O[C@@H]1CC=C(C)C`, the GI50 with SK-MEL-28 melanoma was 18.9 µM; in the assay with TK-10 renal, 14.1 µM; with SK-MEL-5 melanoma, 3.87 µM and 12.3 µM; in the assay with A549 NSCLC, 4.25 µM; with SN12C renal, 3.27 µM; in the assay with HCT-116 colon, 2.77 µM and 11.2 µM and 2.96 µM. The GI50 is 2.76 µM in the assay with LOX IMVI melanoma; 2.52 µM and 20.8 µM with SK-OV-3 ovarian; 6.21 µM and 4.01 µM in the assay on UACC-62 melanoma. Also, the TGI in the assay on SK-MEL-28 melanoma was 32.8 µM and 47.9 µM; with TK-10 renal it was 41.3 µM and 41.7 µM; with SK-MEL-5 melanoma it was 24.2 µM and 40.7 µM; in the assay on A549 NSCLC it was 44.2 µM; with SN12C renal, 31.3 µM and 25.7 µM; in the assay on HCT-116 colon, 28.7 µM and 40.9 µM. Besides, the TGI in the assay on LOX IMVI melanoma was 25.2 µM and 34.6 µM; with SK-OV-3 ovarian it was 39.5 µM and 59.2 µM; in the assay with SNB-75 CNS, 24.7 µM and 200 µM; in the assay on UACC-62 melanoma, 26 µM and 24.1 µM.
